This is an account of results in ChEMBL document CHEMBL1129822, “Thermal atropisomerism of fully functionalized vancomycin CD, DE, and CDE ring systems” (Bioorg Med Chem Lett, 1997).

What all share (type): ADME
Data set [1] in a line: Half-life at 140 degrees C in DMSO.
Data set [2] is described as follows: Half-life at 140 degrees C in ortho dichloro benzene. The settings on record: ortho-dichlorobenzene.
Data set [3] in a line: Half-life at 155 degrees C in DMSO.
The nature of data set [4]: The equilibrium constant at 140 degrees C in DMSO.
Data set [5] is described as follows: The equilibrium constant at 140 in ortho dichloro benzene.
Data set [6] can be described thus: The equilibrium constant at 155 degrees C in DMSO.
A short description of data set [7]: Half-life at 125 degrees C in DMSO.
Data set [8] is described as follows: The equilibrium constant at 125 degrees C in DMSO.

A word on the half-life: it is the time in which the quantity being followed falls by half. Low values mean rapid decline, high ones slow decline.

Regarding `COC(=O)[C@H]1NC(=O)[C@@H](c2ccc(OC)c(Br)c2)NC(=O)[C@H](NC(=O)OC(C)(C)C)c2cc(O)c(OC)c(c2)Oc2ccc(cc2[N+](=O)[O-])[C@H]1O[Si](C)(C)C(C)(C)C`, the figures for the half-life in data set [1], in data set [2] and in data set [3] were 3.52 h, 9.77 h and 1.06 h, respectively. Besides, the figures for the k in data set [4], in data set [5] and in data set [6] were 0.082 h⁻¹, 0.029 h⁻¹ and 0.27 h⁻¹, respectively.

Turning to `COC(=O)[C@H]1NC(=O)[C@@H](c2ccc(OC)c(Br)c2)NC(=O)[C@H](NC(=O)OC(C)(C)C)c2cc(O)c(OC)c(c2)Oc2ccc(cc2Cl)[C@H]1O[Si](C)(C)C(C)(C)C`, the half-life in data set [1] is 4.03 h; in data set [2] it was 53 h. In addition, the figures for the k in data set [4] and in data set [5] were 0.071 h⁻¹ and 0.0054 h⁻¹, respectively.

In the case of `COc1c(O)cc2cc1Oc1ccc(cc1[N+](=O)[O-])[C@@H](O)[C@@H](NC(=O)OC(C)(C)C)C(=O)N[C@@H](CC(N)=O)C(=O)N[C@H]2C(=O)OC(C)(C)C`, the half-life in data set [7] is 0.28 h; in data set [1] it was 0.092 h. For the same compound, the figures for the k in data set [8] and in data set [4] were 0.88 h⁻¹ and 2.06 h⁻¹, respectively.
